Assay results taken from ChEMBL document CHEMBL3407420, “In silico studies, synthesis and binding evaluation of substituted 2-pyrrolidinones as peptidomimetics of RGD tripeptide sequence” (Eur J Med Chem, 2015).

How the values were obtained:
Integrin alpha-V/beta-5 = Integrin alpha-V/beta-5 (Homo sapiens, UniProt P06756+P18084); assay: Binding affinity to alphaVbeta5 receptor (unknown origin); type: protein-complex assay
Integrin alpha-V/beta-3 = Integrin alpha-V/beta-3 (Homo sapiens, UniProt P05106+P06756); assay: Displacement of [125I]echistatin from purified human alphaVbeta3 receptor after 3 hrs by gamma counting; type: protein-complex assay
Integrin alpha-V/beta-3, sequence (P05106 27-788 limits assumed): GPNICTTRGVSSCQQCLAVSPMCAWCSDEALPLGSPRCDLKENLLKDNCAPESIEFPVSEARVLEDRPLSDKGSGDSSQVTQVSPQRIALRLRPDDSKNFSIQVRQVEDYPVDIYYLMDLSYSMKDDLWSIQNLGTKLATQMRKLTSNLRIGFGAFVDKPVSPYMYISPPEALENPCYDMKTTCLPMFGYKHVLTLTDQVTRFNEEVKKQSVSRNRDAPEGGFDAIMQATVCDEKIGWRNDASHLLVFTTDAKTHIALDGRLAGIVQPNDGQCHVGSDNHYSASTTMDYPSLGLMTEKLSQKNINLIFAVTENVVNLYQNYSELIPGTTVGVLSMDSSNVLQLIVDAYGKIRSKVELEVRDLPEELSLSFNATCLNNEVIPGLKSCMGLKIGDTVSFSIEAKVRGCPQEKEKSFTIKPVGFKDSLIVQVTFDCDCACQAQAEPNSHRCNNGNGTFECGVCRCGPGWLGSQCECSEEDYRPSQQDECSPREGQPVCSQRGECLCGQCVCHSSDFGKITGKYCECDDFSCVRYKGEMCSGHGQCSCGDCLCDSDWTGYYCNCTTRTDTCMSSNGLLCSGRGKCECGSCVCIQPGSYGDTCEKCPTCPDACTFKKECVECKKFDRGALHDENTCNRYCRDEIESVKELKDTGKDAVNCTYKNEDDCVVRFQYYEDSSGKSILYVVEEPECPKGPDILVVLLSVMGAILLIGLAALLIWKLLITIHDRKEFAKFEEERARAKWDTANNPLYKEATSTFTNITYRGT
Integrin alpha-V/beta-3, sequence (P06756 31-889 limits assumed): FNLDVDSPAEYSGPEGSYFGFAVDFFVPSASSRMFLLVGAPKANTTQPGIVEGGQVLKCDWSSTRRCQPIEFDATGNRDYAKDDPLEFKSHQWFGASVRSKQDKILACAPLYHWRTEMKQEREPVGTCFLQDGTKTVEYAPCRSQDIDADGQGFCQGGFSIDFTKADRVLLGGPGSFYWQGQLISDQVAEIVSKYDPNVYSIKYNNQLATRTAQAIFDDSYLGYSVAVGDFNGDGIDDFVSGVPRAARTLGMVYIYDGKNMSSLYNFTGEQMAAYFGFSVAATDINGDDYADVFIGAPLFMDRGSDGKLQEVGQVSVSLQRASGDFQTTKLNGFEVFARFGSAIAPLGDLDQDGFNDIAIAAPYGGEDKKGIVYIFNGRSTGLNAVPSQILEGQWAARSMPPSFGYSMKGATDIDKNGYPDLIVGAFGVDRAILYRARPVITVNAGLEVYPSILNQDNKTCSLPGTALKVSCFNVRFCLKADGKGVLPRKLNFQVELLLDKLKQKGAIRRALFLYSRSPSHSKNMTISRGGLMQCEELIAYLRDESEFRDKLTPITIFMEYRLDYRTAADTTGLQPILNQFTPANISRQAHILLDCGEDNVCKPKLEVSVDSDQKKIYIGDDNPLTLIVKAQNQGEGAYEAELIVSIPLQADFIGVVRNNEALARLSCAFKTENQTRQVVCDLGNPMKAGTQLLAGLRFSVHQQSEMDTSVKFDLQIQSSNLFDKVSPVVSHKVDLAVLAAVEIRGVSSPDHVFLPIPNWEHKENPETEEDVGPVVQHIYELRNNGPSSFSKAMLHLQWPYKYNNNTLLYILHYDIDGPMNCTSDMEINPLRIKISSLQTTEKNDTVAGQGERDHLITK
Integrin alpha-V/beta-3, sequence (P06756 891-1048 limits assumed): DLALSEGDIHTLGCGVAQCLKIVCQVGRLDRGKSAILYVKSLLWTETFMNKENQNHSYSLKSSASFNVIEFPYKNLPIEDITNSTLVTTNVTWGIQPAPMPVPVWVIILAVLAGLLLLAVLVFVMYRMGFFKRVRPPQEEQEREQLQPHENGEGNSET

Integrin alpha-V/beta-5, sequence (P06756 31-889 limits assumed): as the sequence (P06756 31-889 limits assumed) above
Integrin alpha-V/beta-5, sequence (P06756 891-1048 limits assumed): as the sequence (P06756 891-1048 limits assumed) above
Integrin alpha-V/beta-5, sequence (P18084 24-799 limits assumed): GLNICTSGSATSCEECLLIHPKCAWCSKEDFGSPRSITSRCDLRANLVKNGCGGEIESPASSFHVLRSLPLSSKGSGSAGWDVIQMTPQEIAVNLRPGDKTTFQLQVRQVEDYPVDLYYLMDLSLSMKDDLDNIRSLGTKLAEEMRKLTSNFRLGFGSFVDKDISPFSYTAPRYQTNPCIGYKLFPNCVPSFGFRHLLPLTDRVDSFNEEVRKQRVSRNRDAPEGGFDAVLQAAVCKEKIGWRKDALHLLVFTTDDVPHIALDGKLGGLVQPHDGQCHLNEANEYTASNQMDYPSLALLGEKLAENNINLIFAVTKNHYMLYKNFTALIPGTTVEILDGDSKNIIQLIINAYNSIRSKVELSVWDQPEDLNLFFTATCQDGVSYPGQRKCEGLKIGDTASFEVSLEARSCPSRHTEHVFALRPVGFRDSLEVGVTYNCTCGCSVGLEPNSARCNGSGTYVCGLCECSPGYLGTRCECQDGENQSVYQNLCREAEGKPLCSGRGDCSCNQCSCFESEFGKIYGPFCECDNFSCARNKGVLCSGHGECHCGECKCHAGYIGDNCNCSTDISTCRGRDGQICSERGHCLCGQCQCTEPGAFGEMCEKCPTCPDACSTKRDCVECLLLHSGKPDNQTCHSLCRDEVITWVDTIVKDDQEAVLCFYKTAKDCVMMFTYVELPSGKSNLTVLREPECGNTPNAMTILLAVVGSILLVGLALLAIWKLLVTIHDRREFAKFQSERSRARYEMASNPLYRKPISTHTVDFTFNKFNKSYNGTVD

IC50 (Integrin alpha-V/beta-5) [µM]	IC50 (Integrin alpha-V/beta-3) [µM]	Compound
30		N=C(N)NCCC[C@@H]1NC(=O)[C@H](CCCCN)NC(=O)[C@@H](Cc2ccccc2)NC(=O)[C@H](CC(=O)O)NC(=O)CNC1=O
	50	N=C(N)NCCC[C@@H]1CCN([C@@H](CCCCN)C(=O)NCCC(=O)O)C1=O
	100	N=C(N)NCCC[C@@H]1CCN([C@@H](CCCCNC(=O)OCc2ccccc2)C(=O)NCCC(=O)O)C1=O
	> 100	N=C(N)NCCNC(=O)[C@H](CCCCNC(=O)OCc1ccccc1)N1CC[C@H](CCC(=O)O)C1=O
